How the values were obtained:
[1] = tested on: human coloadenocarcinoma cells (HCT-8); assay: MTT cell viability assay, HCT-8; format: cell-based
Text: Human cervical epitheloid carcinoma cells (HeLa), human hepatocellular carcinoma cells (HepG2 and Hep3B), human breast cancer cells (MCF-7), human coloadenocarcinoma cells (HCT-8), and normal human lung fibroblast cells (CCD-19Lu) were purchased from American Type Culture Collection (ATCC) Rockville, Md., USA. The human hepatocellular cancinoma cells QGY-7703, and the multi-drug resistant cell line QGY-TR50 derived from QGY-7703, were generously provided by Prof. Yong Xie (The Hong Kong University of Science and Technology, Hong Kong PRC). QGY-TR50 cells were isolated and cultured as described (J. Zhou, S. C. Cheng, D. Luo, Y. Xie Biochem. Biophys. Res. Commun. 2001, 280, 1237-1242). Human nasopharyngeal carcinoma cells (SUNE1 and its cisplatin-resistant variant—CNE2) were derived from poorly differentiated NPC in Chinese patients and were generously provided by Dr. S. W. Tsao (The University of Hong Kong, Hong Kong PRC). Cell culture flasks and 96-well microtitre plates were from Nalge Nunc Int. Culture medium, other medium constituents and phosphate buffer saline (PBS) were obtained by Gibco BRL Rockville, Md., USA. Cell Proliferation kit I (MTT) was purchased from Roche. Mannheim, Germany.

[2] = tested on: HeLa cells; assay: Transmission electron microscopy of autophagic cells; format: cell-based, human; conditions: 1 μM, 2 h
Protocol: Transmission Electron Microscopy. HeLa cells (12×10^4) were seeded on 60 mm plate. Cells were treated with 1 (1 μM) for 2 h, respectively. Cells were then trypsinized, washed twice with PBS and fixed with ice-cold glutaraldehyde (2.5% in 0.1 M cacodylate buffer, pH 7.4) for 30 min. After primary fixation, cells were washed with cacodylate buffer, post-fixed with 1% osmium tetraoxide for 30 min. Osmium tetraoxide was removed and the cell pellet was washed with cacodylate buffer. Pre-warmed gelatin was added to the cell pellet and immediately centrifuged at 2500 rpm for 5 min. The gelatin was dehydrated by immersing in 30% EtOH, 50% EtOH, 70% EtOH once, and in 90% EtOH twice for 5 min and finally in absolutely EtOH for 10 min for three times. The dehydrated sample was washed with propylene oxide twice for 5 min and then immersed in propylene oxide:resin (1:1) for overnight. The sample was immersed in pure resin for 30 min before embedded in Polybed. Specimens were examined using 208S Philips transmission electron microscopy.
Cells treated with 1 were subjected to transmission electron microscopic analysis.

[3] = tested on: calf thymus DNA; assay: Absorption titration with calf thymus DNA; format: binding; conditions: Tris buffer
Protocol: The calf thymus DNA was purchased from Sigma-Aldrich Chemical Co. and was purified by phenol-chloroform extraction. The DNA was dissolved in buffer (5 mM Tris, 5 mM NaCl, pH 7.2). The concentration (per base pair) or calf thymus DNA was determined spectophotometrically on the basic of ε260, 13200 M^−1cm^−1bp.
Absorption Titration. Studying the interaction between drugs and DNA is imperative to pharmaceutical chemistry. Since complexation between a ligand molecule and a nucleic acid leads to optical changes, its binding can be studied using spectroscopic methods like fluorescence and electronic absorption spectroscopy (C. V. Kumar, E. H. Asuncion, J. Am. Chem. Soc. 1993, 115, 8547-8553). The binding interactions of lanthanide (III) porphyrin complexes with calf thymus DNA were investigated using UV-vis spectroscopy and depicted in FIGS. 9 and 10 (selected absorption curves were shown for clear plot). By monitoring wavelengths at 410 nm (complex 1) and 430 nm (complex 2b), successive additions of calf thymus DNA to the respective complexes in Tris buffer solution containing <5% DMSO were done until saturation. Moderate hyprochromicities of 27% and 23% in complexes 1 and 2b were found without significant bathochromic spectral shift. […] The values of binding constant K were calculated from a plot of D/Δεap versus D based on the following equation:
Where D is the concentration of DNA, Δεap=|ΔεA−ΔεB| wherein εA=Aobs/[complex], and Δε=|ΔεB−ΔεF|; εB and εF correspond to the extinction coefficients of DNA-bound lanthanide(III) porphyrin complex adduct and its free complex, respectively. By monitoring absorbance at 410 nm (complex 1) and 430 nm (complex 2b), plots of D/Δεap against D are inserted in FIGS. 9 and 10. Linear curves in two graphs were plotted with slopes of 4.63×10^−5 (complex 1) and 3.60×10^−5 (complex 2b) (both R=0.99).

[4] = tested on: Bid; assay: Western blotting analysis, Bid; format: cell-based, human; conditions: HeLa, 2 μM, 32 h
Protocol: (§1) Cells were washed in cold phosphate-buffered saline (PBS) at 4° C. and lysed in a buffer containing 0.05 M Tis.HCl (pH 7.5), 0.25 M NaCl, 0.005 M EDTA, 0.05 M NaF, 1 mM DTT and 1% Triton. Cell lysates were collected and the protein concentration of cell lysates was measured using a Protein detection kit (Bio-Rad). Equal amount of proteins was resolved in a 12% SDS-PAGE gel and transferred onto nitrocellulose membranes. The membrane was blocked with a blocking solution (1×TBS, 0.1% Tween-20 with 5% non-fat dry milk) at room temperature for 1 h, and washed three times with washing buffer (1×TBS, 0.1% Tween-20) for 5 min each. The membrane was then incubated with primary antibody (Caspase 3, Bid, PARP and β-Actin respectively) for overnight at 4° C. The membrane was washed three times with washing buffer for 5 min each before incubation with the corresponding secondary antibody (horse anti-mouse IgG or goat anti-rabbit IgG). Membrane was washed again and signals were detected using an ECL detection kit (Amersham Pharmacia Biotech) followed by the exposure to X-ray films (Fujifilm).
(§2) After treatment with complex 1 for different time intervals, the expressions of caspase 3, Bid and PARP were detected by the Western blotting analysis. […] Moreover, treatment with complex 1 leads to a reduction in the level of un-cleaved Bid.

[5] = tested on: Caspase 3; assay: Western blotting analysis, caspase 3; format: cell-based, human; conditions: HeLa, 2 μM, 32 h
Protocol: as §1, §2

Substance: [Yb2(OEP)2](μ-OH)2 [Complex 1]
- IC50 ratio cisplatin/complex, HCT-8 ([1]; IC50 of cisplatin divided by IC50 of complex): 11.6
- IC50 ([1]; MTT, 37° C., 48 h, mean ± SD): 2.27 ± 0.6 µM
- autophagic vacuoles by transmission electron microscopy [2]: vesicular structures reminiscence of autophagic vacuoles
- hyprochromicity on addition of calf thymus DNA ([3]; <5% DMSO, until saturation, 410 nm (1), 430 nm (2b)): 27%
- binding constant K with calf thymus DNA ([3]; UV-vis absorption titration, 20° C.): (1.59±0.3)×10^6 mol^−1dm^3
- expression of Bid [4]: decrease dramatically
- expression of caspase 3 [5]: decrease dramatically
